Patent publication US6555550B1, “Musarinic agonists and antagonists” (UCB, S. A.,, priority 1998, dated 2003)

How the values were obtained:
cloned human M4 mAChRs = molecular target: T1, cloned human M4 mAChRs (Homo sapiens, UniProt P08173); assay: Binding to cloned human M4 mAChRs expressed in CHO-Kl cells; settings: 2.5 nM 3H-oxotremorine M, CHO-Kl M4 membranes, pH 7
T1 construct: expressed in transfected cells; host or cells: CHO-K1 cells (membrane preparation)
T1 sequence (P08173 1-479): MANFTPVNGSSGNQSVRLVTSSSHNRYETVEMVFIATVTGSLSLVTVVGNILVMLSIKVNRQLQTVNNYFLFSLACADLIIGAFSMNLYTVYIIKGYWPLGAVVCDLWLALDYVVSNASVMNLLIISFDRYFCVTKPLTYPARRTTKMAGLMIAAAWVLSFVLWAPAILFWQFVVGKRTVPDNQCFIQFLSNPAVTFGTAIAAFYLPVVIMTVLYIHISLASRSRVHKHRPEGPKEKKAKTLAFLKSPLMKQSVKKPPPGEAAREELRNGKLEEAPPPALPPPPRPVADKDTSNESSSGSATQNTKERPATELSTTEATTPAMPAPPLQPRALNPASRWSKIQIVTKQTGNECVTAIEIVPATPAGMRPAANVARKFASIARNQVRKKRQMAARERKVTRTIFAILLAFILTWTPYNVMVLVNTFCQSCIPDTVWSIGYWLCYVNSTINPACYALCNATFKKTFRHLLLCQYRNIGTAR
Experimental: Binding to Cloned Human M4 […] Expressed in CHO-Kl Cells
The following protocol was used to detect binding to cloned human M4 mAChRs expressed in CHO-Kl cells.
A membrane preparation was made from CHO-Kl cells expressing human M4 mAChRs. Aliquots of membrane were stored at −70° C. until thawed on the day of assay. For each assay, CHO-Kl M4 membrane preparation (approximately 20 μg of protein) was incubated with test compound and 2.5 nM ^3H-oxotremorine M (DuPont, NEN) in 20 mM HEPES buffer, pH 7 in an assay volume of 200 μl. Assays were incubated in 96-well polypropylene plates for 40 minutes at room temperature. Nonspecific binding was determined in samples incubated in parallel in the presence of 10 μM atropine (Sigma) instead of test compound. The incubations were terminated by rapid vacuum filtration using a Packard plate harvester through 96-well Whatman GF/B filter plates presoaked in 0.5% polyethylenimine. The filter plate was washed rapidly four times with 0.2 ml aliquots of water. The plate was dried by placing under a heat lamp for 5 minutes. The plate was counted using a Packard scintillation counter after addition of 35 μl Microscint 20 scintillation fluid. Data were analyzed by nonlinear regression analysis.
Results from this assay are used to show the ability of compounds of this invention to bind to the agonist binding site of the muscarinic M4 receptor. Compounds which bind to this site have specific utility in the treatment of pain, schizophrenic disorders and cognitive disorders such as AD.

Female CD-1 mice [1] = assay: Body temperature (rectal probe); format: in vivo; settings: at tail-flick ED50 dose; core temperature
Experimental: At ambient temperature, a temperature probe (type T Thermocouple Thermometer, BAT-10; Physitemp Inc., Clifton, N.J.) was inserted 1.0 cm into the rectum of mice to measure their core temperature and recorded at 0 (before drug as a control baseline), 10, 25 and 55 min after injection of compounds.

Female CD-1 mice [2] = assay: Sedation by visual inspection; format: in vivo; settings: at tail-flick ED50 dose
Description: Sedation was noted by close visual inspection of the animal.

Female CD-1 mice [3] = assay: Tail-flick assay; format: in vivo; settings: injection, % MPE, 10-second cut-off; for ED50: Mus musculus
Description: The tail flick assay is a commonly used animal model of analgesia. It is a stringent enough assay such that opiates (e.g., morphine) show activity in this model, whereas the non-steroidal antiinflammatories (NSAD's) such as ibuprofen are ineffective. As such, it is a useful assay system for investigating the utility of novel compounds for the treatment of severe and chronic pain.
Female CD-1 mice, weighing 20-30 grams were obtained from Charles River laboratories (Wilmington, Mass., USA). A commercially available tail-flick analgesia meter was used (Model TF-6 Analgesia Meter, Emdie Instrument Co., Maidens, Va.). […] A 10-second cut-off time was used as the maximum latency to avoid damage to the mice tails. The latency of each mouse (a mean of two separate test results for each time-point), was obtained at 0 (immediately prior to dosing), 5, 15, 30, and 60 min. time-points after injection of compounds and the % Maximum Possible Effect (% MPE) was calculated by using the formula, % MPE=[(postdrug latency−predrug latency)÷(cutoff time−predrug latency)]×100.

| Compound | Human M4 in CHO-K1 Assay (cloned human M4 mAChRs) [nM] | Side Effect Profile at ED50 Dose: Hypothermia (Female CD-1 mice [1]) [°C] | Side Effect Profile at ED50 Dose: Sedation (Female CD-1 mice [2]) | ED50 (Female CD-1 mice [3]) [mg/kg] | Tail-Flick ED50 (Female CD-1 mice [3]) [mg/kg] |
| --- | --- | --- | --- | --- | --- |
| Clc1nsnc1C1C2CC3CC1CN(C3)C2 (stereo not shown) [Cmpd 7, 3-(5-Azatricyclo[3.3.1.1<3,7>]dec-2-yl)-4-chloro-1,2,5-thiadiazole] | >88 | – | – | – | – |
| CCCOc1nsnc1C1C2CC3CC1CN(C3)C2 (stereo not shown) [Cmpd 12, 3-(5-azatricyclo[3.3.1.1<3,7>]dec-2-yl)-4-propoxy-1,2,5-thiadiazole] | 0.74 | 1.0 | Slight | 4.5 | – |
| CCCCOc1nsnc1C1C2CC3CC1CN(C3)C2 (stereo not shown) [Cmpd 13, 3-(5-azatricyclo[3.3.1.1<3,7>]dec-2-yl)-4-butoxy-1,2,5-thiadiazole] | 10 | – | – | – | – |
| CCCCOc1nsnc1C1C2CC3CC1CN(C3)C2 (stereo not shown) [Cmpd 14, 3-(5-azatricyclo[3.3.1.1<3,7>]dec-2-yl)-4-butoxy-1,2,5-thiadiazole] | 3.8 | 2.0 | Slight | > 10 | – |
| C1CC1COc1nsnc1C1C2CC3CC1CN(C3)C2 (stereo not shown) [Cmpd 16, 3-(5-azatricyclo[3.3.1.1<3,7>]dec-2-yl)-4-(cyclopropylmethoxy)1,2,5-thiadiazole] | <1.4 | 1.5 | Sedation | 1.4 | – |
| CC(C)COc1nsnc1C1C2CC3CC1CN(C3)C2 (stereo not shown) [Cmpd 18, 3-(5-azatricyclo[3.3.1.1<3,7>]dec-2-yl)-4-(2-methyl-propoxy)-1,2,5-thiadiazole] | – | 0 | No sedation | > 5 | – |
| COc1nsnc1C1C2CC3CC1CN(C3)C2 (stereo not shown) [Cmpd 21, 3-(5-azatricyclo[3.3.1.1<3,7>]dec-2-yl)-4-methoxy-1,2,5-thiadiazoles] | 5.9 | 0 | No sedation | – | >5 |
| CCOc1nsnc1C1C2CC3CC1CN(C3)C2 (stereo not shown) [Cmpd 23, 3-(5-azatricyclo[3.3.1.1<3,7>]dec-2-yl)-4-ethoxy-1,2,5-thiadiazoles] | 0.46 | 0.5 | No sedation | – | 1.5 |
| C(CC1CC1)Oc1nsnc1C1C2CC3CC1CN(C3)C2 (stereo not shown) [Cmpd 25, 3-(5-azatricyclo[3.3.1.1<3,7>]dec-2-yl)-4-(cyclopropylethoxy)-1,2,5-thiadiazoles] | – | 1.5 | Slight | – | 4.5 |
| CCC(C)Oc1nsnc1C1C2CC3CC1CN(C3)C2 (stereo not shown) [Cmpd 27, 3-(5-azatricyclo[3.3.1.1<3,7>]dec-2-yl)-4-(1-methyl-propoxy)-1,2,5-thiadiazoles] | 1.55 | 0 | No sedation | – | >5 |
| CCCSc1nsnc1C1C2CC3CC1CN(C3)C2 (stereo not shown) [Cmpd 29, 3-(5-Azatricyclo[3.3.1.1<3,7>]dec-2-yl)-4-propylthio-1,2,5-thiadiazoles] | – | 0.5 | Very slight | – | <1 |
| CCSc1nsnc1C1C2CC3CC1CN(C3)C2 (stereo not shown) [Cmpd 30, 3-(5-Azatricyclo[3.3.1.1<3,7>]dec-2-yl)-4-ethylthio-1,2,5-thiadiazole] | – | 1 | Sedation | 0.3 | – |
| CCCCSc1nsnc1C1C2CC3CC1CN(C3)C2 (stereo not shown) [Cmpd 31, 3-(5-Azatricyclo[3.3.1.1<3,7>]dec-2-yl)-4-butylthio-1,2,5-thiadiazole] | – | 0 | No sedation | 0.3 | – |
| C1CC1CSc1nsnc1C1C2CC3CC1CN(C3)C2 (stereo not shown) [Cmpd 32, 3-(5-Azatricyclo[3.3.1.1<3,7>]dec-2-yl)-4-(cyclopropylmethyl)thio-1,2,5-thiadiazole] | – | <2 | Sedation | < 1 | – |
| CCOc1nsnc1C1C2CC3CC1CN3C2 (stereo not shown) [Cmpd 34, 4-(3-Azatricyclo[3.3.1.0<3,7>]non-9-yl)-3-ethoxy-1,2,5-thiadiazoles] | 4.6 | – | – | – | >2 |
| CCCOc1nsnc1C1C2CC3CC1CN3C2 (stereo not shown) [Cmpd 36, 4-(3-Azatricyclo[3.3.1.0<3,7>]non-9-yl)-3-propyloxy-1,2,5-thiadiazoles] | 3.2 | – | – | – | >5 |
| CC(C)COc1nsnc1C1C2CC3CC1CN3C2 (stereo not shown) [Cmpd 38, 4-(3-Azatricyclo[3.3.1.0<3,7>]non-9-yl)-3-isobutyloxy-1,2,5-thiadiazoles] | – | – | – | – | >5 |
